In patent US20170165237A1 (DRUGGABILITY TECHNOLOGIES IP HOLDCO LIMITED, priority 2014, published 2017):

Assays:
[1] = subconjunctival, 5 subjects; cited from earlier work
angiogenesis pathways = conditions: topical 1%; cited from earlier work
CYP3A4 = CYP3A4 (Homo sapiens, UniProt P08684); conditions: cited from earlier work
human plasma proteins [2] = conditions: cited from earlier work
human plasma proteins [3] = molecular target: human plasma proteins (Homo sapiens, UniProt P02768); conditions: serum albumin; cited from earlier work
in vitro = conditions: PAMPA, pH 7
Experimental: The receiver compartment was phosphate buffered saline (pH 7.0) supplemented with 1% sodium dodecyl sulfate. The assay was performed at room temperature; incubation time was 1-24 hours. The concentration in the receiver compartment was determined by UV-VIS spectrophotometry (Thermo Scientific Genesys S10).

[4] = in vivo; cited from earlier work
[5] = topical, psoriasis; cited from earlier work
[6] = cited from earlier work
[7] = in vivo; cited from earlier work; remark: listed apart in the source
[8] = cited from earlier work; remark: listed apart in the source
P-gp = P-gp (Homo sapiens, UniProt P08183); conditions: cited from earlier work
[9] = single dose [14C] Sirolimus oral solution, healthy volunteers

Sequence of CYP3A4 (P08684 whole entry): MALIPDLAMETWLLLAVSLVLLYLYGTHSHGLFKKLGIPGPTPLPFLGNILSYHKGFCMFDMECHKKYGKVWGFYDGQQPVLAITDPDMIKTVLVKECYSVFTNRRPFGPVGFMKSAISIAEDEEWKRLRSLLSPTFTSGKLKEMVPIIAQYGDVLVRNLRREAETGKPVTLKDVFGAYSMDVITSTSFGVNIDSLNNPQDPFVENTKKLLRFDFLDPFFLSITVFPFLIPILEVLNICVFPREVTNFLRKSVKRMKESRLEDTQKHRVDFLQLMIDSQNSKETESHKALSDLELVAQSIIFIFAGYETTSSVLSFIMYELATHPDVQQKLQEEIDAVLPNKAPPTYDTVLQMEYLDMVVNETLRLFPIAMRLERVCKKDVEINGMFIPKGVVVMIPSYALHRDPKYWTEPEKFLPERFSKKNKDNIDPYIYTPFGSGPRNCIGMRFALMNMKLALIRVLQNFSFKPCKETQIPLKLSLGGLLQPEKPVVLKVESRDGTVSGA
Sequence of human plasma proteins (Homo sapiens, UniProt P02768) (P02768 25-609): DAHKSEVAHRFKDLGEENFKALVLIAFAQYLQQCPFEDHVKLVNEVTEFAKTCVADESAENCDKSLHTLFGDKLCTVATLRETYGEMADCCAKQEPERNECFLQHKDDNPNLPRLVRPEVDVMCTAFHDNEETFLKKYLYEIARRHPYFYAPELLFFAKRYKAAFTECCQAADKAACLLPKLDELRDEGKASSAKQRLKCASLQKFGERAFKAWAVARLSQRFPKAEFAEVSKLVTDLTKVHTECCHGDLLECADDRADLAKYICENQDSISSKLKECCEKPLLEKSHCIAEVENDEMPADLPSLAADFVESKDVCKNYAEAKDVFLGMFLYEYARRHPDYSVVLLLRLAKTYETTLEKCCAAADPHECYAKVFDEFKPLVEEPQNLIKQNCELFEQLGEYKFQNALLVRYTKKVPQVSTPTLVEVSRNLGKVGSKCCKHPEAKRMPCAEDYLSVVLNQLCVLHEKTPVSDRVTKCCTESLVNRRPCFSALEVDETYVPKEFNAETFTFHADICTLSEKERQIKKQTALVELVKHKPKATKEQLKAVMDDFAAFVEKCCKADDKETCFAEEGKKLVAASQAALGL
Sequence of P-gp (P08183 whole entry): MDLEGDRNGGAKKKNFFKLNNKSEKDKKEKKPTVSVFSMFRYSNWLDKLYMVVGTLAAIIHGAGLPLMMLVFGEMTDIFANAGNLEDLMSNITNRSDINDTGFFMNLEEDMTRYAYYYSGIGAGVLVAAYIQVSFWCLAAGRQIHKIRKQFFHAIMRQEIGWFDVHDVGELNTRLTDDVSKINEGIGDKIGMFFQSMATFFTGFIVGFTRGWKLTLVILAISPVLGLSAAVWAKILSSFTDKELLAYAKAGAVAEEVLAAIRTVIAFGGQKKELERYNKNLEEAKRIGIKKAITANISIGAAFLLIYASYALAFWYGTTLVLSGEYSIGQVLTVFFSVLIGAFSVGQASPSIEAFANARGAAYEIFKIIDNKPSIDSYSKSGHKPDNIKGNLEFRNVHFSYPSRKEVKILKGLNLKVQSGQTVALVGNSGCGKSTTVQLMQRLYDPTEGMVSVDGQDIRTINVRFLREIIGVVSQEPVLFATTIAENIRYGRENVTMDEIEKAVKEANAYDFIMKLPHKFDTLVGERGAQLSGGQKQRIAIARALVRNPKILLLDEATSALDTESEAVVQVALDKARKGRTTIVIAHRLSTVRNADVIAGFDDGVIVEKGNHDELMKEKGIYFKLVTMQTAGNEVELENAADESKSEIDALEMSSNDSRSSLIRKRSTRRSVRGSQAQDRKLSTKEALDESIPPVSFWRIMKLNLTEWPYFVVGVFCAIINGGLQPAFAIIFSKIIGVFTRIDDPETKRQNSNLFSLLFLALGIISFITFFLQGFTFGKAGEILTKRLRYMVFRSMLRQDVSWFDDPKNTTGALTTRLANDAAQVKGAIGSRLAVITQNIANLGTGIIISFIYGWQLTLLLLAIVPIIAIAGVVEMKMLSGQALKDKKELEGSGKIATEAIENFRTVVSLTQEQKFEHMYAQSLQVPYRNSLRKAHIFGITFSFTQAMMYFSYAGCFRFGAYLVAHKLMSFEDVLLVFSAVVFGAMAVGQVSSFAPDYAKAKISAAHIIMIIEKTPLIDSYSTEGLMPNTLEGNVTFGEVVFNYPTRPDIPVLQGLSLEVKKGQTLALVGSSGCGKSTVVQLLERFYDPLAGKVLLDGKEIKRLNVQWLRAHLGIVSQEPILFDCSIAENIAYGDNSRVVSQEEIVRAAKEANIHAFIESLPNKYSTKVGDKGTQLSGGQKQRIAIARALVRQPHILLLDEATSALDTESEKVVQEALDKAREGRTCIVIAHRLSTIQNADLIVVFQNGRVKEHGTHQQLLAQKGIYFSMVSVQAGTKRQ

CO[C@H]1C[C@@H]2CC[C@@H](C)[C@@](O)(O2)C(=O)C(=O)N2CCCC[C@H]2C(=O)O[C@H]([C@H](C)C[C@@H]2CC[C@@H](O)[C@H](OC)C2)CC(=O)[C@H](C)/C=C(\C)[C@@H](O)[C@@H](OC)C(=O)[C@H](C)C[C@H](C)/C=C/C=C/C=C/1C [Sirolimus, (3 S,6R,7E,9R,10R, 12R, 14S, 15E, 17E, 19E,21 S,23 S,26R,27R,34aS)9,10,12,13,14,21,22,23,24, 25,26,27,32,33,34, 34a-hexadecahydro-9,27-dihydroxy-3-[(1R)-2[(1 S,3R,4R)-4-hydroxy-3-methoxycyclohexyl]-1-methylethyl]-10,21-dimethoxy6,8,12,14,20,26-hexamethyl-23,27-epoxy-3H-pyrido[2,1-c][1,4]oxaazacyclohentriacontine1,5,11,28,29 (4H,6H,31H)-pentone]
tolerability [1]: well tolerated
angiogenesis pathways; regeneration and revascularization of photocoagulated blood vessels (angiogenesis pathways): can suppress
substrate for CYP3A4 (CYP3A4): substrate
bound to human plasma proteins (human plasma proteins [2]): approximately 92%
bound mainly to serum albumin (human plasma proteins [3]): 97%
Papp (in vitro): < 1 ×10⁻⁶ cm/s
immune-mediated events in autoimmune disease models [4]: suppresses
clinical score [5]: significant reduction
plaque thickness and erythema [5]: did not show significant improvement
systemic absorption after topical application ([6]; detection >1.0 ng/mL): No detectable systemic absorption
effect on facial angiofibromas ([6]; topical): causes regression
allograft survival [7]: prolongs
increase of mean total exposure (AUC) by high-fat meal compared with fasting ([8]; healthy subjects, high-fat meal (861.8 kcal, 54.9% kcal from fat)): 23 to 35%
mean±SD terminal elimination half-life (t1/2) ([8]; multiple dosing, stable renal transplant patients): about 62±16 hours
contribution to immunosuppressive activity in human whole blood ([8]; parent vs metabolites, human whole blood): more than 90%
radioactivity excreted in urine [8, 9]: 2.2%
radioactivity recovered from the feces [8, 9]: 91%
substrate for P-gp (P-gp): substrate
